# Source: PMC2916072 (Archives of biochemistry and biophysics, 2010)
# pIC50: −log10 of the molar value.
# Target: Met receptor tyrosine kinase (Homo sapiens, UniProt P08581)
# Experiment: phospho-Met
# Assay type: cell-based
# Met receptor tyrosine kinase, sequence (P08581 25-307): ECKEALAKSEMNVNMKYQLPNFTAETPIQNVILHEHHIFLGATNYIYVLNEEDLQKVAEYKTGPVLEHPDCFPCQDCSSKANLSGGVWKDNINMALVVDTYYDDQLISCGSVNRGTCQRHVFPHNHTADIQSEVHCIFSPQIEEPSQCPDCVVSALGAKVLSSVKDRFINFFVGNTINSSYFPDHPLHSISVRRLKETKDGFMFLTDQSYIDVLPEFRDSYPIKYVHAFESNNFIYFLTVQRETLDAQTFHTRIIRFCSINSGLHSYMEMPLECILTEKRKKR
# Met receptor tyrosine kinase, sequence (P08581 308-1390): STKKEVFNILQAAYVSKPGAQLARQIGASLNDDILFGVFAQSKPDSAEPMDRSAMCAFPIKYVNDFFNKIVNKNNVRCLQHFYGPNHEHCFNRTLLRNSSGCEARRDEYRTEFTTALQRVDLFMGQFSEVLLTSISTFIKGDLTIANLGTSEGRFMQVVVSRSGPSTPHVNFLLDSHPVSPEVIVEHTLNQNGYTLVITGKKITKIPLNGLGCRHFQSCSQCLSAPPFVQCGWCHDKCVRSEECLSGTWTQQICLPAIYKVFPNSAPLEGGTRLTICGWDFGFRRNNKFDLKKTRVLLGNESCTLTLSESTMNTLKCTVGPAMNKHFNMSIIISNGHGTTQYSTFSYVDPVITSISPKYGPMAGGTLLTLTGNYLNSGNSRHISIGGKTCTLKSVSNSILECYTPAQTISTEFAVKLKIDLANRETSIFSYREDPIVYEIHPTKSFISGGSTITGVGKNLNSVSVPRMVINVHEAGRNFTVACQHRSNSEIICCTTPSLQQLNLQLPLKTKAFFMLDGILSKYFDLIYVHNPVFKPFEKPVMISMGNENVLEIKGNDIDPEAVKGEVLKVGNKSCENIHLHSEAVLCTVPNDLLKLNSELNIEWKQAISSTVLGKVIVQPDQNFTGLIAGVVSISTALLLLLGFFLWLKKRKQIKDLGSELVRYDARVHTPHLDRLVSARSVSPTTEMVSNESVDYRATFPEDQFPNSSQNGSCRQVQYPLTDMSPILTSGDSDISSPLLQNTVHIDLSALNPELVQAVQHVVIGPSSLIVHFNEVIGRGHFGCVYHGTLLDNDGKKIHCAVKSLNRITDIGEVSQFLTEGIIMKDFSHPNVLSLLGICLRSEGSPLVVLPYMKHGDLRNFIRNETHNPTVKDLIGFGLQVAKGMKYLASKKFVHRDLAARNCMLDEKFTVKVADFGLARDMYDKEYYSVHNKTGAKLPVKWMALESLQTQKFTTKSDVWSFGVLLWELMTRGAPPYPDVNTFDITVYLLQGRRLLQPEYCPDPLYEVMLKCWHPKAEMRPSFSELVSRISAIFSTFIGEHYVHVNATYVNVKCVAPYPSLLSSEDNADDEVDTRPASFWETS
smiles,measurement,value
"Cc1[nH]c(/C=C2\C(=O)Nc3ccc(S(=O)(=O)N(C)c4cccc(Cl)c4)cc32)c(C)c1C(=O)N1CCN(C)CC1 [SU11274, (3Z)-N-(3-chlorophenyl)-3-({3,5-dimethyl-4-[(4-methylpiperazin-1-yl)carbonyl]-1H-pyrrol-2-yl}methylene)-N-methyl-2-oxoindoline-5-sulfonamide]",pIC50,7.30
